The values that follow come from patent US6812015B1, “Histidine protein-phosphatase” (Merck Patent Gesellschaft, priority 1999, dated 2004).

For one series, the system named is histidine phosphatase. The series is described as follows: Reagents affecting histidine phosphatase activity (dephosphorylation of 32P-CheA). It is filed as biochemical, rabbit. As to the method: (§1) The activity of the soluble histidine phosphatase is determined from the dephosphorylation of ^32P-labelled histidine-phosphorylated protein (CheA) as substrate. CheA is a recombinant bacterial histidine autokinase (Bilwes A M, Alex L A, Crane B R, Simon M I (1999) Cell 96:131-141); the C-terminal kinase domain phosphorylates the N-terminal His48. […] Detection on the one hand via ammonium molybdate, and on the other hand by autoradiography (FIG. 2).
(§2) The substrate (10 μl of ^32P-CheA) is mixed with […] of assay buffer (100 mM triethanolamine/hydrochloric acid pH 8.0, 0.1% 2-mercaptoethanol, 0.02% sodium nitrite) and the enzyme solution. The reaction takes place at 37° C. in 30 min. […] After a centrifugation (5 min at 15,800 g), the supernatant is removed and measured in a scintillation counter.

The target in series [1] is histidine protein phosphatase purified from rabbit liver (rabbit) (UniProt P83468). Nature of the series: cell-based or functional assay.
The subject of series [2] is histidine protein phosphatase. The series is described as follows: Hydrolysis of substrates by the novel histidine protein phosphatase (specificity). It is filed as biochemical, rabbit. As for the experimental part:
as §1, §2

Series [3] has as its target [gamma-32P] Ser/Thr-Casein.
Series [4] has as its target [gamma-32P] His-nucleoside diphosphate kinase.
In series [5] the target is 32P-labelled histidine-phosphorylated CheA (recombinant bacterial histidine autokinase).
The format of series [6] is physicochemical, rabbit. As to conditions: in the crude homogenate and in the partially purified fractions.

Where two headings read alike, the source gives them in different places.

Consider `CO[C@H]([C@H](O)CC(=O)[C@@H](C)[C@@H](O)CC[C@@H](C)[C@@H]1O[C@]2(CC[C@@H](C)[C@H](CC[C@H](C)C(C)=O)O2)CC[C@@H]1C)[C@H](OC(=O)C[C@@H](O)C1=C(C)C(=O)OC1=O)C(C)C` [Tautomycin], for which the “Activity (%)” value with histidine phosphatase (reagent concentration 0.5 nM) was determined as 90%.
Turning to `O=C(O)CN(CCOCCOCCN(CC(=O)O)CC(=O)O)CC(=O)O` [EGTA], the “Activity (%)” value in the series with histidine phosphatase (reagent concentration 5 mM) is 91%.
For Inhibitor protein I1, the Activity (%) of histidine phosphatase with 1 nM reagent in series [1] came out at 120%.
`[O]=[Mo](=[O])([O-])[O-]` [Molybdate]: the “Activity (%)” value with histidine phosphatase (10 µM) is listed as 71%.
Regarding Microcystin, the “Activity (%)” value in the series on histidine phosphatase (0.005 µM) is 110%.
Turning to `C=C1[C@@H](O)[C@@H]2O[C@]3(CC[C@H](/C=C/[C@@H](C)[C@@H]4CC(C)=C[C@@]5(O[C@H](C[C@@](C)(O)C(=O)O)CC[C@H]5O)O4)O3)CC[C@H]2O[C@@H]1[C@@H](O)C[C@H](C)[C@H]1O[C@@]2(CCCCO2)CC[C@H]1C` [Okadaic acid], the “Activity (%)” value in the series with histidine phosphatase (reagent concentration 10 μM) came to 108%. Moreover, the “Inhibition of histidine phosphatase activity” value with histidine phosphatase (text statement referring to Table 2) is “not being inhibited”.
Regarding `[Mg+2]` [Mg^2+], the “Activity (%)” value came to 142% in the series with histidine phosphatase (reagent concentration 1 mM) and 226% in the series with histidine phosphatase (reagent concentration 10 mM).
For `[O]=[V]([O-])([O-])[O-]` [Vanadate], the “Inhibition of histidine phosphatase activity” value with histidine phosphatase is recorded as “not being inhibited”. In addition, the “Activity (%)” value in the series on histidine phosphatase (10 µM) is reported as 62%.
As to `O=[N+]([O-])c1ccc(OP(=O)(O)O)cc1` [p-nitrophenyl phosphate], the “Hydrolysis by the histidine phosphatase” value in series [2] is listed as “did not hydrolyze”.
As for `[Ca+2]` [Ca^2+], the “Activity (%)” value in the series on histidine phosphatase (reagent concentration 1 mM) was determined as 165%; with histidine phosphatase (reagent concentration 10 mM) it was 240%.

B1: histidine protein phosphatase purified from rabbit liver (protein)
chain: AAAGLAQIPDVDIDSDGVFKYVLIRVHAAPPSEAPGGESKDIVRGYKWAEYHADIYDKVSGELQKKGHDCECLGGGRISHQSQDRKIHVYGYSMGYGRAQHSVSTEKIRAKYPDYEVTWADDGY
Consider B1, for which the “Hydrolysis by the novel histidin protein phosphatase” value in series [3] is “-”; in series [4], “-”; in series [5] it was “+”. Besides, in series [5], the “histidine dephosphorylation of 32P-phosphorylated CheA” value was “The purified protein shows time-, temperature-, pH- and protein-dependent histidine dephosphorylation of the 32P-phosphorylated CheA”. Also, the storage stability result in series [6] is recorded as “shows storage stability”.
